The text below walks through data of patent US4563479A, “Synergistic radiation protective pharmaceutical compositions” (Chinoin Gyogyszer es Vegyeszeti Termekek Gyar RT, priority 1979, dated 1986).

For data set [1] the following is noted: cited from earlier work.
Data set [2] has as its system mice. The data set can be described thus: Survival and survival coefficient "S" of irradiated mice (X-ray or 60Co gamma), Tables 2-4. Conditions: 140 mg/kg AET alone i.p. The data set is classed as in vivo. Here is the method: Experiments are carried out in mice. Irradiation was carried out with X-ray (rtg) and with gamma rays obtained from ^60 Co isotope. Survival was observed on the 30th day after irradiation and expressed by using survival coefficient "S" according to Kaluszyner. […] Mice were treated intraperitoneally.

For data set [3] the following is noted: cited from earlier work. This is another data set of the same source.

Where a name gives a salt, the structure may show the parent alone. Read-outs that look alike come from different tables or passages of the source.

In the case of `N=C(N)SCCN` [AET, aminoethyl-isothiuronium-chloride-hydrochloride], the LD50 p.o. in data set [1] (listed as aminoethyl-isothiuronium-chloride-hydrochloride) was 710 mg/kg. Besides, the Survival % in data set [2] (X-ray (rtg) 630 R) stood at 15%; in data set [2] (X-ray (rtg) 800 R) it was 0%; in data set [2] (gamma 900 rad), 5%; in data set [2] (gamma 1100 rad), 0%. The “Survival coefficient "S"” value in data set [2] (X-ray (rtg) 630 R) is on record as 0.39; in data set [2] (X-ray (rtg) 800 R), 0.27; in data set [2] (gamma 900 rad) it was 0.37; in data set [2] (gamma 1100 rad), 0.28.
As to `N=C(N)SCCN` [aminoethyl-isothiuronium-bromide-hydrobromide], the LD50 p.o. in data set [1] is 1200 mg/kg.
For `Cl.N[C@@H](CS)C(=O)O` [cysteine-hydrochloride], the Radiation protective dose in data set [3] (in vivo) is 1900 mg/kg.
Take `N=C(N)NCCS` [mercaptoethyl-guanidine]: the LD50 p.o. in data set [1] was 350 mg/kg. Further, the Therapeutic index in data set [3] (LD50 p.o. / radiation protective dose) is on record as 1.75.
